In data set [1] the target is 5-hydroxytryptamine receptor 2B (Homo sapiens, UniProt P41595).
Description: Inhibition of human 5-HT2B receptor assessed as inhibition constant by microbeta scintillation counting method
For data set [2], the target named is Kappa-type opioid receptor (Homo sapiens, UniProt P41145). As to the kind of experiment: Inhibition of human KOR assessed as inhibition constant by microbeta scintillation counting method.
A short description of data set [3]: Cytotoxicity against human MRC5 cells assessed as reduction in cell viability measured after 3 days by resazurin dye based fluorimetric analysis.

5-hydroxytryptamine receptor 2B, sequence (P41595 whole entry): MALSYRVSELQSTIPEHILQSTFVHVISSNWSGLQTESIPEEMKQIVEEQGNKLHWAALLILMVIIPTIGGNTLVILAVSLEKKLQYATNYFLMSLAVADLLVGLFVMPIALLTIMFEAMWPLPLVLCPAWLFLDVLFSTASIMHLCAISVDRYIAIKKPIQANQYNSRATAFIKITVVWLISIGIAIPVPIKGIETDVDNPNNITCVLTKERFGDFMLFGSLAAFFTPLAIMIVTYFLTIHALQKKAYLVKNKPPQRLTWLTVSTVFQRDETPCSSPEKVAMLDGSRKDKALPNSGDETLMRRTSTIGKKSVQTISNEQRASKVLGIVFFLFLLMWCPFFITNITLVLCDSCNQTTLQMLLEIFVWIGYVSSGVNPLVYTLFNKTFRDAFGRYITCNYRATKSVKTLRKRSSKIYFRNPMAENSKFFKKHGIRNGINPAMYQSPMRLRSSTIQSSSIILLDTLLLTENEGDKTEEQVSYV
Kappa-type opioid receptor, sequence (P41145 whole entry): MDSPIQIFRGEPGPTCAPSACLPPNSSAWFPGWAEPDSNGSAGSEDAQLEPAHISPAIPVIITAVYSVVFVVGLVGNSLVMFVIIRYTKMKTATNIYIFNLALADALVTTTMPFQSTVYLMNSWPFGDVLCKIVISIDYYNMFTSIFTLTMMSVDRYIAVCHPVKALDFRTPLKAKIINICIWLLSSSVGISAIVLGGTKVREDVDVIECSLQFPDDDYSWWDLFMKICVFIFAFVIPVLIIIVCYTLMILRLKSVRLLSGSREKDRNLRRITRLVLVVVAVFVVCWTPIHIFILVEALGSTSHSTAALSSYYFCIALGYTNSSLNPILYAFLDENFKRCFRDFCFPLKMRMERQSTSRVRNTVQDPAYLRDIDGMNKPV

Consider `C[C@@H](Nc1ncnc2c1c(C(F)(F)F)cn2[C@@H]1O[C@H](CO)[C@@H](O)[C@H]1O)c1ccccc1`, for which the Ki in data set [1] is 0.71 µM. As to `C[C@H](Nc1ncnc2c1c(C(F)(F)F)cn2[C@@H]1O[C@H](CO)[C@@H](O)[C@H]1O)c1ccccc1`, the inhibitory constant (Ki) in data set [2] was 1.9 µM. On to `OC[C@H]1O[C@@H](n2cc(C(F)(F)F)c3c(NCc4cccc(Cl)c4)ncnc32)[C@H](O)[C@@H]1O`, for which the CC50 at 72 h in data set [3] is greater than 64 µM. The Ki in data set [1] worked out at 0.62 µM. `OC[C@H]1O[C@@H](n2cc(C(F)(F)F)c3c(NCc4ccccc4Cl)ncnc32)[C@H](O)[C@@H]1O` had an inhibition constant (Ki) in data set [1] of 0.55 µM. With `OC[C@H]1O[C@@H](n2cc(C(F)(F)F)c3c(NCc4ccccc4)ncnc32)[C@H](O)[C@@H]1O`, the Ki in data set [2] came to 1.8 µM; in data set [1], 0.5 µM. Turning to `OC[C@H]1O[C@@H](n2cc(C(F)(F)F)c3c(NCc4ccccc4F)ncnc32)[C@H](O)[C@@H]1O`, the CC50 at 72 h in data set [3] is greater than 64 µM. In addition, in data set [1], the Ki came to 1.2 µM. Take `OC[C@H]1O[C@@H](n2cc(C(F)(F)F)c3c(NCc4ccc(Cl)cc4)ncnc32)[C@H](O)[C@@H]1O`: in data set [1], the affinity corresponds to a Ki of 0.83 µM.

One may read the Ki as the equilibrium dissociation constant of an inhibitor or competing ligand from its target. For orientation: CC50 means the concentration that lowers cell viability or growth by half.
